Results: patent publication US20180008688A1, “METHOD AND COMPOSITIONS FOR ENHANCING IMMUNOTHERAPEUTIC TREATMENT OF A CANCER” (Augusta University Research Institute, Inc., priority 2016, published 2018)
“Also recorded” adds a separate entry of the source. Read-outs that look alike come from different tables or passages of the source. Peptide text beside a SMILES is read from it. * marks the point of attachment. Cbz = O=C(OCc1ccccc1)*

What was measured:
[1] = tested on: T cells; assay: Purified T cells activated with anti-CD3/CD28 with nutlin, IL-12, MG-132; assay type: cell-based, mouse; conditions: MG-132 in the presence of both nutlin and IL-12
Text: Regulation of p53 is complex, and it can be targeted by multiple pathways besides MDM2 (Chao C. C. (2015) Clin. Chim. Acta 438: 139-147). If IL-12 is rescuing T cells from nutlin, one possibility is that IL-12 might activate an alternative pathway of p53 degradation, not dependent on MDM2. To test this, purified T cells were activated (without any antigen-presenting cells or other cells) using anti-CD3/CD28 antibodies. T cells were activated in the presence or absence of nutlin with or without addition of recombinant IL-12.
Finally, to test the hypothesis that IL-12 targeted p53 for proteolytic degradation via an alternated pathway, proteasomal function was inhibited using MG-132. T cells were activated using immobilized CD3/CD28 as above. […] CFSE proliferation tracked inversely with p53 levels. […] While MG-132 affects many intracellular pathways besides p53, these findings support the basic hypothesis that IL-12 bypasses nutlin by targeting p53 for degradation via an alternative route.

[2] = tested on: B16F10 tumors; assay type: in vivo; conditions: for response of B16 melanoma tumors to chemotherapy alone: single moderate dose
Experimental: In vivo tumor studies: The B16F10 and E.G7 (EL4-OVA) cell lines were obtained from ATCC. B16-OVA (B16F10 transfected with full-length chicken ovalbumin) clone MO4 was according to Falo et al. ((1995) Nat. Med. 1: 649-653). B16F10 cells expressing EGFP protein (B16-GFP cells) were derived using lentiviral transfection. Tumor implantation was performed as described (Sharma et al., (2007) J. Clin. Invest. 117: 2570-2582), using 1×10^5 cells for B16F10 and 1×10^6 cells for other cell lines (large inocula were used to ensure rapid tumor engraftment and immune suppression). […] Tumor volume was calculated from orthogonal diameters using the formula V=L×W^2×π/6. Mice received approved euthanasia when tumors reached a size of 300 mm^2 (product of orthogonal diameters); death was never used a planned endpoint in any study.
(§1) Tumor implantation was performed as described (Sharma et al., (2007) J. Clin. Invest. 117: 2570-2582). VO-OHpic was given at 10 mg/kg/day i.p., in 10% DMSO/PBS. Cyclophosphamide was given at 150 mg/kg i.p×1 dose; and oxaliplatin at 5 mg/kg i.p×1 dose. Nutlin-3a was administered daily at 10 mg/kg/day i.p. For checkpoint blockade, mice received anti-CTLA-4 plus a cocktail of antibodies against the PD-1 pathway. Vaccines and T cell adoptive transfer studies were performed as described (Sharma et al., (2015) Sci. Advances. 1: e1500845).
VO-OHpic/CTX, nutlin-3a, oxaliplatin and immunotherapy regimens: The vanadate compound VO-OHpic (Mak et al., (2010) J. Chem. Biol. 3: 157-163) inhibits PTEN activity, and this drug was used to destabilize PTEN+Tregs during chemotherapy. Like all of the available PTEN-inhibitors, VO-OHpic can also affect other phosphatases (Spinelli et al., (2015) Adv. Biol. Regul. 57: 102-111).
VO-OHpic was given at 10 mg/kg/day i.p., in 10% DMSO/PBS. Cyclophosphamide was given at 150 mg/kg i.p×1 dose. Oxaliplatin was given at 5 mg/kg i.p×1 dose. […] For checkpoint blockade, mice received anti-CTLA-4 (clone 9D9, BioXcell) plus a cocktail of antibodies against the PD-1 pathway: anti-PD-L2, clone TY25 (Yamazaki et al., (2002) J. Immunol. 169: 5538-5545); anti-PD-1, clone J43 (Agata et al., (1996) Int. Immunol. 8: 765-772); and anti-PD-L1, clone MIH7 (Tsushima et al., (2003) Eur. J. Immunol. 33: 2773-2782). A cocktail was used in order to block the PD-1 pathway as completely as possible and thus minimize any peculiarities of a single blocking antibody.

[3] = tested on: B16F10, EL4, LLC, Tg(Grm1)Epv, MMTV-PyMT; assay type: in vivo, mouse; conditions: every tumor tested
Text: Conversely, the effect of chemotherapy could be fully replaced by adoptive transfer of exogenous tumor-specific CD8^+ T cells (e.g., pmel-1 cells) activated with vaccine.

[4] = tested on: E.G7 tumors; assay: E.G7/oxaliplatin model in LysMcre/p53-KO hosts with or without nutlin-3a; assay type: in vivo, mouse; conditions: LysMcre/p53 knockout mice
Text: To test whether the relevant target of nutlin in tumors was specifically the p53 expression in myeloid dendritic cells, the E.G7/oxaliplatin model in LysMcre/p53-KO hosts was used. If mice lacked the relevant p53 in tumor-associated myeloid cells, then LysMcre/p53-KO mice should lose all anti-tumor effect of nutlin. For these studies, mice received congenically-marked OT-I cells to monitor whether T cells were still rescued by IL-12 in tumors.
(§2) Mice with a nuclear-localizing Cre-recombinase knock-in replacing one copy of the Lyz2 gene (Clausen et al., (1999) Transgenic Res. 8: 265-277) (strain 004781, Jax) were crossed as heterozygotes with homozygous p53^flox/flox mice (Marino et al., (2000) Genes Dev. 14: 994-1004) (strain 008462, Jax).
as §1

[5] = tested on: E.G7 tumors; assay: RIP-mOVA mice with E.G7 tumors treated with oxaliplatin with or without nutlin; assay type: in vivo; conditions: oxaliplatin in the absence of nutlin
Experimental: A classical model of ICD was first tested in which EL4-OVA lymphoma tumors (clone E.G7) are treated with oxaliplatin chemotherapy (Ghiringhelli et al., (2009) Nat. Med. 15: 1170-1178). E.G7 bears the same model antigen as B16-OVA (described with the RIP-mOVA model, above), so it was possible to test the effects of nutlin plus oxaliplatin in the RIP-mOVA model.

[6] = tested on: B16F10 tumors; conditions: VO-OHpic combined with chemotherapy; Sharma et al. 2015; cited from earlier work
[7] = tested on: B16F10 tumors; assay: Tumors in knockout hosts treated with VO-OHpic or CTX/VO-OHpic; assay type: in vivo, mouse; conditions: VO-OHpic alone, LysMcre/p53-KO mice
Text: as §2
In vivo tumor studies: The B16F10 and E.G7 (EL4-OVA) cell lines were obtained from ATCC. B16-OVA (B16F10 transfected with full-length chicken ovalbumin) clone MO4 was according to Falo et al. ((1995) Nat. Med. 1: 649-653). B16F10 cells expressing EGFP protein (B16-GFP cells) were derived using lentiviral transfection. Tumor implantation was performed as described (Sharma et al., (2007) J. Clin. Invest. 117: 2570-2582), using 1×10^5 cells for B16F10 and 1×10^6 cells for other cell lines (large inocula were used to ensure rapid tumor engraftment and immune suppression). Tumors were implanted bilaterally in each mouse as a control for reproducible implantation technique; replicate tumor diameters in a single mouse were typically within ±15%. Tumor volume was calculated from orthogonal diameters using the formula V=L×W^2×π/6. Mice received approved euthanasia when tumors reached a size of 300 mm^2 (product of orthogonal diameters); death was never used a planned endpoint in any study.
Tumor implantation was performed as described (Sharma et al., (2007) J. Clin. Invest. 117: 2570-2582). […]

[8] = tested on: p53; assay: Tumors in PTEN^Treg-KO mice treated in vivo with pifithrin; design: species or system mouse
[9] = tested on: Ly6c+CD11c^NEG cells; assay: Mouse myeloid-cell maturation co-cultures; assay type: cell-based; conditions: exposed to signals from activated T cells
Experimental: Mouse myeloid-cell maturation cultures: Maturation co-cultures were performed in V-bottom wells (Nunc 249952 V96), using RPMI-1640 medium with 10% fetal bovine serum, but no added cytokines. The preferred source of myeloid cells was TDLN or spleen from mice bearing B16F10 or E.G7 tumors. Rapid isolation of cells was important for viability, so cells were disaggregated by passing once through a 40 μm mesh, then stained briefly on ice and FACS-sorted into ice-cold medium using low-shear fluidics and a large nozzle (Mo-Flo cell sorter). […] myeloid cells were enriched by sorting for Ly6c^+ that were CD11c^NEG B220^NEG (to exclude dendritic cells and B cells). For some experiments, myeloid cells were sub-fractionated using sort dates based on expression of Gr-1 and CD11b.
Sorted Ly6c+ myeloid cells were added to co-cultures as previously described (Sharma et al., (2013) Immunity 38: 998-1012). As an inflammatory stimulus for differentiation, CD8^+ effector cells (5×10^4) were FACS-sorted from spleens of either OT-I or pmel-1 mice (both performed equivalently), and added to co-cultures along with 100 nM cognate peptide (SIINFEKL (SEQ ID NO: 1) or hgp100). […]

[10] = tested on: CD33+ cells; assay: Human myeloid cell cultures matured with recombinant IFNγ; assay type: cell-based; conditions: cultured in GM-CSF+IL-6, then IFNγ; FIG. 5A
Text: (Minneapolis, MN) and isolated by centrifugation over Ficoll-Paque PLUS (GE Healthcare), followed by enrichment for myeloid cells using CD33^+ micro-beads (Miltenyi MACs). Alternatively, myelomonocytic cells were enriched by counter-flow elutriation as previously described (Munn et al., (2002) Science 297: 1867-1870; Munn et al., (2004) J. lmmunol. 172: 4100-4110). Immature myeloid cells were then generated by culture for 7 days as previously described (Koehn et al., (2015) Blood 126: 1621-1628; Lechner et al., (2010) J. lmmunol. 185, 2273-2284). Briefly, PBMC were cultured in RPMI-1640 medium with 10% FBS, 1% Pen/Strep, 1% GlutaMax as well as recombinant human GM-CSF (10 ng/ml, R&D Systems)+IL-6 (10 ng/ml, R&D Systems). Culture growth media was refreshed on days 3 and 6; on day 7, cells were washed and returned to culture in medium without GM-CSF/IL-6. Replicate cultures were then treated for 2 days with or without recombinant human IFNγ (30ng/ml, R&D Systems) to induce maturation, and with or without p53 inhibitor pifithrin-α (10 uM, Sigma). After 48 h, cultures were harvested and stained for CD11b, CD33, phospho-p53-Ser15, IRF5 and BDCA3 (CD141).
Human peripheral-blood mononuclear cells were enriched for monocytic cells, then cultured in GM-CSF+IL-6 as described by Koehn et al. ((2015) Blood 126: 1621-1628). […]

[11] = VO-OHpic alone, WT control mice

Compound: CC(C)C[C@@H](C=O)NC(=O)[C@H](CC(C)C)NC(=O)[C@H](CC(C)C)NC(=O)OCc1ccccc1 [MG-132] (Cbz-Leu-Leu-Leu-aldehyde)
- T cell proliferation [1]: inhibited proliferation
- p53 levels in activated T cells [1]: progressively increased p53

Compound: O=P1(N(CCCl)CCCl)NCCCO1 (stereo not shown) [cyclophosphamide]
- response of B16 melanoma tumors to chemotherapy alone [2]: highly resistant
- interaction of chemotherapy drug with PTEN-inhibitor [3]: synergy

Compound: Nc1ccn([C@@H]2O[C@H](CO)[C@@H](O)C2(F)F)c(=O)n1 [gemcytabine]
- response of B16 melanoma tumors to chemotherapy alone [2]: highly resistant
- interaction of chemotherapy drug with PTEN-inhibitor [3]: synergy

Compound: O=C1[O][Pt]2([NH][C@@H]3CCCC[C@H]3[NH]2)[O]C1=O [oxaliplatin]
- response to oxaliplatin chemotherapy [4]: unable to respond; also recorded: lost all response to treatment
- anti-tumor effect [5]: transient regression
- autoimmune diabetes [5]: rapidly died from progressive autoimmune diabetes

Compound: VO-OHpic
- destabilization of PTEN+Tregs in tumors [6]: rapid and essentially complete destabilization
- anti-tumor effect ([2]; PTEN-inhibitor by itself, large established tumors, FIG. 12): no effect
- Ly6c+CD103+ dendritic cells [2, 11]: allowed emergence
- tumor growth [2, 11]: suppressed tumor growth
- enhancement of tumor growth by PTEN-inhibitor ([2]; systems of the disclosure): does not enhance the growth of tumors
- tumor growth [7]: not suppressed

Compound: pifithrin
- emergence of Ly6c+CD103+ dendritic cell subset [8]: selectively prevented the emergence
- immune surveillance of tumors [8]: allowed tumors to escape immune surveillance
- differentiation of Ly6c+ MDSCs into Ly6c+CD103+ dendritic cells [9]: inhibited

Compound: recombinant IFNγ: recombinant human IFNγ (R&D Systems) used to induce maturation
- maturation of CD33+ cells [10]: rapidly matured into activated cells expressing CD83, CD141, XCR1 and Batf3
